Measured values as given in patent publication US20230374015A1, “INHIBITORS OF FIBROBLAST GROWTH FACTOR RECEPTOR KINASES” (Kinnate Biopharma Inc., priority 2020, published 2023).

Target: FGFR2 (Homo sapiens, UniProt P21802)
Experiment: FGFR2 Kinase Protocol - Condition 2 (Reaction Biology HotSpot radiometric kinase assay, no preincubation)
Format: biochemical
Conditions: poly[Glu:Tyr] (4:1) 0.2 mg/ml, ATP 100 microM, 2 hr room temperature
Procedure, shortened: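 Ten-point, 3-fold compound dilutions were tested against wildtype or V564F FGFR2 with 100 µM ATP (33P-labelled), no preincubation, and 0.2 mg/ml poly[Glu:Tyr] (4:1) substrate. After 2 hr at room temperature, incorporation was read on P81 filter paper; IC50 fitted from activity remaining relative to vehicle.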

Chain of FGFR2 (P21802 22-821): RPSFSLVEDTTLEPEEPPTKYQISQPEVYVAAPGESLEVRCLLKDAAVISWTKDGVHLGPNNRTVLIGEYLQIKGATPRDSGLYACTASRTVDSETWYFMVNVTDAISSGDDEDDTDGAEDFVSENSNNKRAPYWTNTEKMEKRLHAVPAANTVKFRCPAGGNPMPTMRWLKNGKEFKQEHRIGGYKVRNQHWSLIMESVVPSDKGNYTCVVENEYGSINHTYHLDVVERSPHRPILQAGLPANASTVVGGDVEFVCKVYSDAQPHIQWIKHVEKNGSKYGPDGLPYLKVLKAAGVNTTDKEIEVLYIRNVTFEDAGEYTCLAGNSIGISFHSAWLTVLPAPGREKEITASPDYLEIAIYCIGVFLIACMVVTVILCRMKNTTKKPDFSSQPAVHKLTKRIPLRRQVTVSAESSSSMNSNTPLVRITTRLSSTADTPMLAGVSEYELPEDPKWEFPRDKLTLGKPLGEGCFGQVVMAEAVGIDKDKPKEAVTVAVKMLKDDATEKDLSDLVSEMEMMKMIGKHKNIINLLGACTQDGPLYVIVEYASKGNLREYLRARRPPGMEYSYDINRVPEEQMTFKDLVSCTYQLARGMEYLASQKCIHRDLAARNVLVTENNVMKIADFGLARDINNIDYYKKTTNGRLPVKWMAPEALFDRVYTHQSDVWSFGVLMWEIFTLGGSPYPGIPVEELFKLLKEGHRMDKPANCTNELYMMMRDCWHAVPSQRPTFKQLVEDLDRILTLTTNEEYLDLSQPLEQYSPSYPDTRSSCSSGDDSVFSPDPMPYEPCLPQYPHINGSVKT

| IC50 | IC50 (given as numeric bound) | Structure (SMILES) |
| --- | --- | --- |
| ≤ 100 nM |  | C=CC(=O)N1C[C@@H](n2nc(C#Cc3cc4ncn(C5CC5)c4cc3Cl)c3c(N)nccc32)C[C@@H]1COC [Example 138, 1-[(2R,4S)-4-{4-Amino-3-[2-(6-chloro-1-cyclopropyl-1,3-benzodiazol-5-yl)ethynyl]pyrazolo[4,3-c]pyridin-1-yl}-2-(methoxymethyl)pyrrolidin-1-yl]prop-2-en-1-one] |
| ≤ 100 nM |  | C=CC(=O)N1CC[C@H](n2nc(C#Cc3cc4ncn(CC)c4c(F)c3Cl)c3c(N)nccc32)C1 [Example 136, (S)-1-(3-(4-Amino-3-((6-chloro-1-ethyl-7-fluoro-1H-benzo[d]imidazol-5-yl)ethynyl)-1H-pyrazolo[4,3-c]pyridin-1-yl)pyrrolidin-1-yl)prop-2-en-1-one] |
| ≤ 100 nM |  | C=CC(=O)N1CC[C@H](n2nc(C#Cc3ccc4c(c3)ncn4C3CC3)c3c(N)ncnc32)C1 [Example 193, 1-[(3S)-3-{4-Amino-3-[2-(1-cyclopropyl-1,3-benzodiazol-5-yl)ethynyl]pyrazolo[3,4-d]pyrimidin-1-yl}pyrrolidin-1-yl]prop-2-en-1-one] |
| ≤ 100 nM |  | C=CC(=O)N1C[C@@H](n2nc(C#Cc3cc4nccn4cc3F)c3c(N)ncnc32)C[C@@H]1COC [Example 124, 1-((2R,4S)-4-(4-Amino-3-((6-fluoroimidazo[1,2-a]pyridin-7-yl)ethynyl)-1H-pyrazolo[3,4-d]pyrimidin-1-yl)-2-(methoxymethyl)pyrrolidin-1-yl)prop-2-en-1-one] |
| ≤ 100 nM |  | C=CC(=O)N1C[C@@H](n2nc(C#Cc3cc4ncn(C5CC5)c4cc3F)c3c(N)nccc32)C[C@@H]1COC [Example 109, 1-[(2R,4S)-4-[4-Amino-3-[2-(1-cyclopropyl-6-fluoro-1,3-benzodiazol-5-yl)ethynyl]pyrazolo[4,3-c]pyridin-1-yl]-2-(methoxymethyl)pyrrolidin-1-yl]prop-2-en-1-one] |
|  | > 500 nM | C=CC(=O)N1C[C@H](c2nc(C#Cc3cc4ncn(C5CC5)c4cc3F)c3c(N)ncnn23)C[C@@H]1COC [Example 198, 1-[(2R,4R)-4-{4-Amino-5-[2-(1-cyclopropyl-6-fluoro-1,3-benzodiazol-5-yl)ethynyl]imidazo[4,3-f][1,2,4]triazin-7-yl}-2-(methoxymethyl)pyrrolidin-1-yl]prop-2-en-1-one] |
| ≤ 100 nM |  | C=CC(=O)N1C[C@@H](n2cc(C#Cc3ccc4c(c3)ncn4C)c3c(N)ncnc32)C[C@@H]1COC(F)(F)F [Example 66, 1-[(2R,4S)-4-[4-Amino-5-[2-(1-methyl-1,3-benzodiazol-5-yl)ethynyl]pyrrolo[2,3-d]pyrimidin-7-yl]-2-[(trifluoromethoxy)methyl]pyrrolidin-1-yl]prop-2-en-1-one] |
| ≤ 100 nM |  | [2H]C([2H])([2H])OC[C@H]1C[C@H](n2nc(C#Cc3c(F)cc4c(ncn4C)c3F)c3c(N)ncnc32)CN1C(=O)C=C [Example 134, 1-[(2R,4S)-4-[4-Amino-3-[2-(4,6-difluoro-1-methyl-1,3-benzodiazol-5-yl)ethynyl]pyrazolo[3,4-d]pyrimidin-1-yl]-2-[(2H3)methoxymethyl]pyrrolidin-1-yl]prop-2-en-1-one] |
| ≤ 100 nM |  | C=CC(=O)N1C[C@@H](n2cc(C#Cc3cc4ncn(C(F)F)c4cc3F)c3c(N)ncnc32)C[C@@H]1COC [Example 84, 1-[(2R,4S)-4-(4-Amino-5-[2-[1-(difluoromethyl)-6-fluoro-1,3-benzodiazol-5-yl]ethynyl]pyrrolo[2,3-d]pyrimidin-7-yl)-2-(methoxymethyl)pyrrolidin-1-yl]prop-2-en-1-one] |
| ≤ 100 nM |  | C=CC(=O)N1C[C@@H](n2nc(C#Cc3cc4ncn(CC)c4cc3F)c3c(N)nccc32)C[C@@H]1COC [Example 79, 1-[(2R,4S)-4-[4-Amino-3-[2-(1-ethyl-6-fluoro-1,3-benzodiazol-5-yl)ethynyl]pyrazolo[4,3-c]pyridin-1-yl]-2-(methoxymethyl)pyrrolidin-1-yl]prop-2-en-1-one] |
| ≤ 100 nM |  | C=CC(=O)N1C[C@@H](n2nc(C#Cc3cc4ncn(CC)c4cc3Cl)c3c(N)ncnc32)C[C@@H]1C(F)F [Example 180, 1-((2R,4S)-4-(4-amino-3-((6-chloro-1-ethyl-1H-benzo[d]imidazol-5-yl)ethynyl)-1H-pyrazolo[3,4-d]pyrimidin-1-yl)-2-(difluoromethyl)pyrrolidin-1-yl)prop-2-en-1-one] |
| ≤ 100 nM |  | C=CC(=O)N1C[C@@H](n2cc(C#Cc3cc4ncn(C)c4cc3F)c3c(N)ncnc32)C[C@@H]1CF [Example 186, 1-((2R,4S)-4-(4-Amino-5-((6-fluoro-1-methyl-1H-benzo[d]imidazol-5-yl)ethynyl)-7H-pyrrolo[2,3-d]pyrimidin-7-yl)-2-(fluoromethyl)pyrrolidin-1-yl)prop-2-en-1-one] |
| ≤ 100 nM |  | C=CC(=O)N1CC[C@H](n2nc(C#Cc3cc4ncn(C)c4cc3Cl)c3c(N)nccc32)C1 [Example 137, (S)-1-(3-(4-Amino-3-((6-chloro-1-methyl-1H-benzo[d]imidazol-5-yl)ethynyl)-1H-pyrazolo[4,3-c]pyridin-1-yl)pyrrolidin-1-yl)prop-2-en-1-one] |
| ≤ 100 nM |  | C=CC(=O)N1C[C@@H](n2nc(C#Cc3c(F)cc4c(ncn4C(F)F)c3F)c3c(N)nccc32)C[C@@H]1COC [Example 65, 1-[(2R,4S)-4-(4-Amino-3-[2-[1-(difluoromethyl)-4,6-difluoro-1,3-benzodiazol-5-yl]ethynyl]pyrazolo[4,3-c]pyridin-1-yl)-2-(methoxymethyl)pyrrolidin-1-yl]prop-2-en-1-one] |
| ≤ 100 nM |  | C=CC(=O)N1C[C@@H](n2cc(C#Cc3c(Cl)cc4c(ncn4C)c3F)c3c(N)ncnc32)C[C@@H]1COC [Example 106, 1-[(2R,4S)-4-[4-Amino-5-[2-(6-chloro-4-fluoro-1-methyl-1,3-benzodiazol-5-yl)ethynyl]pyrrolo[2,3-d]pyrimidin-7-yl]-2-(methoxymethyl)pyrrolidin-1-yl]prop-2-en-1-one] |
| ≤ 100 nM |  | C=CC(=O)N1CC[C@H](n2nc(C#Cc3cc4ncn(CC)c4cc3Cl)c3c(N)nccc32)C1 [Example 133, (S)-1-(3-(4-Amino-3-((6-chloro-1-ethyl-1H-benzo[d]imidazol-5-yl)ethynyl)-1H-pyrazolo[4,3-c]pyridin-1-yl)pyrrolidin-1-yl)prop-2-en-1-one] |
| ≤ 100 nM |  | C=CC(=O)N1CC[C@H](n2nc(C#Cc3cc4ncn(CC)c4c(F)c3F)c3c(N)ncnc32)C1 [Example 153, 1-[(3S)-3-{4-Amino-3-[2-(1-ethyl-6,7-difluoro-1,3-benzodiazol-5-yl)ethynyl]pyrazolo[3,4-d]pyrimidin-1-yl}pyrrolidin-1-yl]prop-2-en-1-one] |
| ≤ 100 nM |  | C=CC(=O)N1C[C@@H](n2nc(C#Cc3cc4ncn(C5CC5)c4cc3F)c3c(N)ncnc32)C[C@@H]1C(F)F [Example 178, 1-((2R,4S)-4-(4-amino-3-((1-cyclopropyl-6-fluoro-1H-benzo[d]imidazol-5-yl)ethynyl)-1H-pyrazolo[3,4-d]pyrimidin-1-yl)-2-(difluoromethyl)pyrrolidin-1-yl)prop-2-en-1-one] |
| ≤ 100 nM |  | C=CC(=O)N1C[C@@H](n2nc(C#Cc3c(F)cc4c(cnn4C)c3F)c3c(N)ncnc32)C[C@@H]1COC [Example 48, 1-((2R,4S)-4-(4-amino-3-((4,6-difluoro-1-methyl-1H-indazol-5-yl)ethynyl)-1H-pyrazolo[3,4-d]pyrimidin-1-yl)-2-(methoxymethyl)pyrrolidin-1-yl)prop-2-en-1-one] |
| ≤ 100 nM |  | C=CC(=O)N1C[C@@H](n2nc(C#Cc3c(F)cc4c(ncn4C)c3F)c3c(N)ncnc32)C[C@@H]1COC(F)(F)F [Example 54, 1-[(2R,4S)-4-[4-Amino-3-[2-(4,6-difluoro-1-methyl-1,3-benzodiazol-5-yl)ethynyl]pyrazolo[3,4-d]pyrimidin-1-yl]-2-[(trifluoromethoxy)methyl]pyrrolidin-1-yl]prop-2-en-1-one] |
| ≤ 100 nM |  | C=CC(=O)N1C[C@@H](n2nc(C#Cc3c(Cl)cc4c(ncn4CC)c3F)c3c(N)ncnc32)C[C@@H]1COC [Example 116, 1-[(2R,4S)-4-[4-Amino-3-[2-(6-chloro-1-ethyl-4-fluoro-1,3-benzodiazol-5-yl)ethynyl]pyrazolo [3,4-d]pyrimidin-1-yl]-2-(methoxymethyl)pyrrolidin-1-yl]prop-2-en-1-one] |
| ≤ 100 nM |  | C=CC(=O)N1C[C@@H](n2nc(C#Cc3ccc4c(c3)ncn4C3CC3)c3c(N)ncnc32)C[C@@H]1CC#N [Example 188, 2-[(2R,4S)-4-{4-Amino-3-[2-(1-cyclopropyl-1,3-benzodiazol-5-yl)ethynyl]pyrazolo[3,4-d]pyrimidin-1-yl}-1-(prop-2-enoyl)pyrrolidin-2-yl]acetonitrile] |
| 100 to 1000 nM |  | C=CC(=O)N1CC[C@H](c2nc(C#Cc3cc4ncn(C5CC5)c4cc3F)c3c(N)nccn23)C1 [Example 201, 1-[(3 S)-3-{8-Amino-1-[2-(1-cyclopropyl-6-fluoro-1,3-benzodiazol-5-yl)ethynyl]imidazo[1,5-a]pyrazin-3-yl}pyrrolidin-1-yl]prop-2-en-1-one] |
| ≤ 100 nM |  | C=CC(=O)N1C[C@@H](n2nc(C#Cc3cc4ncn(CC)c4c(F)c3F)c3c(N)ncnc32)C[C@@H]1COC [Example 123, 1-[(2R,4S)-4-[4-Amino-3-[2-(1-ethyl-6,7-difluoro-1,3-benzodiazol-5-yl)ethynyl]pyrazolo[3,4-d]pyrimidin-1-yl]-2-(methoxymethyl)pyrrolidin-1-yl]prop-2-en-1-one] |
| 100 to 1000 nM |  | C=CC(=O)N1C[C@@H](n2nc(C#Cc3ccc4nn(CC)cc4c3)c3c(N)ncnc32)C[C@@H]1COC [Example 42, 1-[(2R,4S)-4-[4-amino-3-[2-(2-ethylindazol-5-yl)ethynyl]pyrazolo[3,4-d]pyrimidin-1-yl]-2-(methoxymethyl)pyrrolidin-1-yl]prop-2-en-1-one] |
